Results: patent US10870710B2, “Synthetic oligosaccharide subunits of the Psl exopolysaccharide of pseudomonas aeruginosa and uses thereof” (Medlmmune Limited, priority 2013, dated 2020)

Each compound was assayed on anti-Psl mAb WapR-016 (class III) (assay: ELISA, class III mAb WapR-016 binding to oligosaccharide-BSA conjugates). Conditions: oligosaccharide-BSA conjugate coated on plate; mAb 5 μg/mL.
Procedure: Microtiter plates were coated with tetrasaccharide (3)-BSA conjugate (3A), pentasaccharide (2)-BSA conjugate (3B), hexasaccharide (4)-BSA conjugate (3C), and decasaccharide (1)-BSA conjugate (3D) at the indicated carbohydrate concentrations. Anti-Psl mAbs class I (Cam-003, ●), class II (WapR-001, ▪), class III (WapR-016, ▴), and R347 (♦) (5 μg/mL) were tested for reactivity with each oligosaccharide component. The optical density (OD) values are reported as the means±SD. Class I (Cam-003), II (WapR-001), and III (WapR-016) anti-Psl mAbs were previously shown to bind three unique epitopes of Psl derived from P. aeruginosa.
The conjugations were performed as instructed by Pierce Endogen Inc. In short, the thiol derivative (2.5 eq. excess to available MI-groups on the protein), deprotected just prior to conjugation as described above, was dissolved in ddH2O (100 μL) and added to a solution of the maleimide activated protein (2 mg) in conjugation buffer sodium phosphate pH 7.2 containing EDTA and sodium azide (200 μL). The mixture was incubated at room temperature for 18 h and then purified by Millipore Centriplus centrifugal filter devices with a 10 kDa molecular cutoff. All centrifugations were performed at 4° C. for 25 min, 3000 rpm. The reaction mixture was centrifuged and the filter washed with sodium phosphate buffer pH 7.4 (3×200 μL). The conjugate was retrieved and taken up in sodium phosphate buffer pH 7.4, 0.15 M sodium chloride (1 mL). This gave glycoconjugates with a molar carbohydrate/BSA ratio of 7:1 for tetrasaccharide 3, 8:1 for pentasaccharide 2, 15:1 for hexasaccharide 4, and 5:1 for decasaccharide 1 as determined by quantitative monosaccharide analysis by HPAEC/PAD and the Lowry protein concentration assay.
ELISA plates (Nunc MaxiSorp) were coated overnight at 4° C. with 3-fold serial dilutions of oligosaccharide-BSA conjugates (relative to the concentration of the conjugated oligosaccharides) followed by washing with PBS supplemented with 0.1% Tween 20 (PBS-T) and blocking with PBS supplemented with 1% bovine serum albumin (PBS-B). The coated ELISA plates were incubated with anti-Psl antibodies (5 μg/mL in PBS-B) for 1 h at 4° C. Next the plates were washed with PBS-T and treated with HRP-conjugated anti-human secondary antibodies for 1 h followed by development and analysis as described (Digiandomenico, A., et al., J. Exp. Med. 2012, 209, 1273-1287).
After confirming the structural integrity of the synthetic Psl oligosaccharides, the ability of various anti-Psl mAbs to recognize the synthetic oligosaccharides was examined as follows. […]
In the case of `CC1O[C@@H](OC2C(O)[C@H](OCN)OC(CO)[C@H]2O)C(O)C(O[C@@H]2OC(CO)[C@@H](O)C(O[C@@H]3OC(CO)[C@@H](O)C(O)C3O[C@H]3OC(CO)[C@@H](O)C(O)C3O)C2O)[C@H]1O` (stereo partly shown) [compound 2], the “ELISA reactivity with WapR-016” value is reported as “did not bind”. For `CC1O[C@@H](OC2C(O)[C@H](OCN)OC(CO)[C@H]2O)C(O)C(O[C@@H]2OC(CO)[C@@H](O)C(O[C@@H]3OC(CO)[C@@H](O)C(O)C3O)C2O)[C@H]1O` (stereo partly shown) [compound 3], the “ELISA reactivity with WapR-016” value was “did not bind”. In the case of `CC1O[C@@H](OC2C(O)[C@H](OC3C(O[C@H]4OC(CO)[C@@H](O)C(O)C4O)[C@H](OC4C(O)[C@H](OC5C(O)[C@H](OC6C(O)[C@H](OCN)OC(CO)[C@H]6O)OC(C)[C@@H]5O)OC(CO)[C@H]4O)OC(CO)[C@H]3O)OC(CO)[C@H]2O)C(O)C(O[C@@H]2OC(CO)[C@@H](O)C(O[C@@H]3OC(CO)[C@@H](O)C(O)C3O[C@H]3OC(CO)[C@@H](O)C(O)C3O)C2O)[C@H]1O` (stereo partly shown) [compound 1], the “ELISA reactivity with WapR-016” value is reported as “weakly”. `CC1O[C@@H](OC2C(O)[C@H](OCN)OC(CO)[C@H]2O)C(O)C(O[C@@H]2OC(CO)[C@@H](O)C(O[C@@H]3OC(CO)[C@@H](O)C(O[C@@H]4OC(CO)[C@@H](O)C(O)C4O)C3O[C@H]3OC(CO)[C@@H](O)C(O)C3O)C2O)[C@H]1O` (stereo partly shown) [compound 4] was tested, and the “ELISA reactivity with WapR-016” value was “react potently”.
